Reference: ChEMBL document CHEMBL3525902, “In vitro metabolism of oxymetazoline: evidence for bioactivation to a reactive metabolite” (Drug Metab Dispos, 2011)

Experiments:
Liver microsome [1] = test: Drug metabolism in NADPH supplemented human liver microsomes fraction assessed as 3-((1H-imidazol-2-yl)methyl)-6-tert-butyl-2,4-dimethylphenol formation at 50 uM after 1 hr by LC-MS/MS method; format: ADME
Cytochrome P450 2C19 [2] = molecular target: T1, Cytochrome P450 2C19 (Homo sapiens, UniProt P33261); test: Activity of human recombinant CYP2C19 assessed as 3-((1H-imidazol-2-yl)methyl)-6-tert-butyl-2,4-dimethylphenol formation at 50 uM in presence of NADPH by LC-MS/MS method; format: ADME; conditions: recombinant enzyme
[3] = Drug metabolism in NADPH supplemented rabbit liver microsomes fraction assessed as 3-((1H-imidazol-2-yl)methyl)-6-tert-butyl-2,4-dimethylphenol formation at 50 uM after 1 hr by LC-MS/MS method; format: ADME, Oryctolagus cuniculus
[4] = Drug level in NADPH supplemented rabbit liver S9 fraction treated with 50 uM oxymetazoline assessed as compound-N-acetyl cysteine conjugate formation in presence of N-acetyl cysteine by LC-MS/MS method; format: ADME, subcellular, Oryctolagus cuniculus
Cytochrome P450 2C19 [5] = molecular target: T1, Cytochrome P450 2C19; test: Activity of human recombinant CYP2C19 assessed as 3-((4,5-dihydro-1H-imidazol-2-yl)methyl)-6-(1-hydroxy-2-methylpropan-2-yl)-2,4-dimethylphenol formation at 50 uM in presence of NADPH by LC-MS/MS method; format: ADME; conditions: recombinant enzyme
Cytochrome P450 2C18 = molecular target: T2, Cytochrome P450 2C18 (Homo sapiens, UniProt P33260); test: Activity of human recombinant CYP2C18 assessed as metabolite formation at 50 uM in presence of NADPH by LC-MS/MS method; format: ADME; conditions: recombinant enzyme
T2 sequence (P33260 whole entry): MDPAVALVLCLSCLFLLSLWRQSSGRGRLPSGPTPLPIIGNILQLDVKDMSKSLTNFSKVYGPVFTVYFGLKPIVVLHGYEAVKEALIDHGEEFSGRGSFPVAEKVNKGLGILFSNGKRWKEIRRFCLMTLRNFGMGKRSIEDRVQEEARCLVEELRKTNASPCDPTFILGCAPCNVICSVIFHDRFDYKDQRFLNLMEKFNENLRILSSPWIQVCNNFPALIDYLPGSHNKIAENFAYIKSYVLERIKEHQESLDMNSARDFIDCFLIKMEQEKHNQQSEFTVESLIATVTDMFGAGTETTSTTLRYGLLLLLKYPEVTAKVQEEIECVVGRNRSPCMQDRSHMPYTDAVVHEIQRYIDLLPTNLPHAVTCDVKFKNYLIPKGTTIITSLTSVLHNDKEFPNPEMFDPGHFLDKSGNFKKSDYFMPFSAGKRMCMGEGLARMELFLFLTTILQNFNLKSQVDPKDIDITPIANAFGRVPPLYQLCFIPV

Cytochrome P450 2C9 = Cytochrome P450 2C9 (Homo sapiens, UniProt P11712); test: Activity of human recombinant CYP2C9 assessed as metabolite formation at 50 uM in presence of NADPH by LC-MS/MS method; format: ADME; conditions: recombinant enzyme
[6] = Drug metabolism in NADPH supplemented rabbit liver S9 fraction assessed as 3-((1H-imidazol-2-yl)methyl)-6-(1-hydroxy-2-methylpropan-2-yl)-2,4-dimethylphenol formation at 50 uM in presence of glutathione by LC-MS/MS method; format: ADME, subcellular, Oryctolagus cuniculus; conditions: s9, 50 µM
[7] = Retention time of the compound at 50 uM by LC-MS/MS method; format: physicochemical
[8] = Drug metabolism in NADPH supplemented human liver S9 fraction assessed as 3-((1H-imidazol-2-yl)methyl)-6-(1-hydroxy-2-methylpropan-2-yl)-2,4-dimethylphenol formation at 50 uM in presence of glutathione by LC-MS/MS method; format: ADME, subcellular; conditions: s9, 50 µM
[9] = Drug metabolism in NADPH supplemented rabbit liver microsomes fraction assessed as 3-((4,5-dihydro-1H-imidazol-2-yl)methyl)-6-(1-hydroxy-2-methylpropan-2-yl)-2,4-dimethylphenol formation at 50 uM after 1 hr by LC-MS/MS method; format: ADME, Oryctolagus cuniculus
Cytochrome P450 1A2 = molecular target: T3, Cytochrome P450 1A2 (Homo sapiens, UniProt P05177); test: Activity of human recombinant CYP1A2 assessed as metabolite formation at 50 uM in presence of NADPH by LC-MS/MS method; format: ADME; conditions: recombinant enzyme
T3 sequence (P05177 whole entry): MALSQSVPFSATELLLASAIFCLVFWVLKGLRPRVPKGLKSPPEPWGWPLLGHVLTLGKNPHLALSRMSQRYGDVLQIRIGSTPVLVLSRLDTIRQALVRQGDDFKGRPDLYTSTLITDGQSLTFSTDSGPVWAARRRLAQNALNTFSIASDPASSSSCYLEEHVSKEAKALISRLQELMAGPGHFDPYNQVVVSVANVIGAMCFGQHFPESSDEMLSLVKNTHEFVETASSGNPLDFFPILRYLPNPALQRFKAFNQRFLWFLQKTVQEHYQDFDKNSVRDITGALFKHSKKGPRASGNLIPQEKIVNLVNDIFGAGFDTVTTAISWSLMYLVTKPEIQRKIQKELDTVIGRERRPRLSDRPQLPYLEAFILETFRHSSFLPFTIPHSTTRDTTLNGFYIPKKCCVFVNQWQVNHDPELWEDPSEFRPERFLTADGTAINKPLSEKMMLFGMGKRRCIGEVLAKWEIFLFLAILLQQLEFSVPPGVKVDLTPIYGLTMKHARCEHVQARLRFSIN

Liver microsome [10] = test: Drug metabolism in NADPH supplemented human liver microsomes fraction assessed as 3-((4,5-dihydro-1H-imidazol-2-yl)methyl)-6-(1-hydroxy-2-methylpropan-2-yl)-2,4-dimethylphenol formation at 50 uM after 1 hr by LC-MS/MS method; format: ADME
[11] = Drug metabolism in NADPH supplemented rat liver S9 fraction assessed as 3-((1H-imidazol-2-yl)methyl)-6-(1-hydroxy-2-methylpropan-2-yl)-2,4-dimethylphenol formation at 50 uM in presence of glutathione by LC-MS/MS method; format: ADME, subcellular; conditions: s9, 50 µM

T1 sequence (P33261 whole entry): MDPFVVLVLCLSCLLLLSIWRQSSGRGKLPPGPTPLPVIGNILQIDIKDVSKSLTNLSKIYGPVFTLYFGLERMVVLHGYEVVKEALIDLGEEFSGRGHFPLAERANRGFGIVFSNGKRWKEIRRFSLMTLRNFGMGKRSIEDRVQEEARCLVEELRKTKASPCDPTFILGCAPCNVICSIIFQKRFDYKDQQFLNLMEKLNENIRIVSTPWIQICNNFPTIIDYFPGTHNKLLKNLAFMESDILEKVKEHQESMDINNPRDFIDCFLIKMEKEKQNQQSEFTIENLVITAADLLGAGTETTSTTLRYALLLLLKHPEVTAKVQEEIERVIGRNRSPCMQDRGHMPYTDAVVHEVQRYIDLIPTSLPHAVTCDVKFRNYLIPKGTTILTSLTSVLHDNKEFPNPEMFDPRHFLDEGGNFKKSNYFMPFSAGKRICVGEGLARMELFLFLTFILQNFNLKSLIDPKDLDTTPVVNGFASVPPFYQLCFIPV
Cytochrome P450 2C9, sequence (P11712 whole entry): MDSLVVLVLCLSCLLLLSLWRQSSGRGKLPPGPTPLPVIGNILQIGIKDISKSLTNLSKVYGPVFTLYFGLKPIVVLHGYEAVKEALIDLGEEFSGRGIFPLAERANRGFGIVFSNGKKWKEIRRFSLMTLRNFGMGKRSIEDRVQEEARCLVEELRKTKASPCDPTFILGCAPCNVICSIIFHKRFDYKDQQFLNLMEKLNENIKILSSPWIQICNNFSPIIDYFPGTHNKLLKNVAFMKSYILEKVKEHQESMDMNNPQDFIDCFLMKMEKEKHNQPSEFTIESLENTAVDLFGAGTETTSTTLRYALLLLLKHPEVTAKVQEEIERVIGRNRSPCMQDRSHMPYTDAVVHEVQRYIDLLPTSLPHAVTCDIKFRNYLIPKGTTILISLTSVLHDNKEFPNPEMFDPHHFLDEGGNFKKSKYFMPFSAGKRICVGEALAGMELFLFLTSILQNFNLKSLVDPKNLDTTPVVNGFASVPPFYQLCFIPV

Drug metabolism (Liver microsome [1]): metabolite_detected
Drug metabolism (Cytochrome P450 2C19 [2]): metabolite_detected
Drug metabolism [3]: metabolite_detected
Drug metabolism [4]: metabolite_detected
Drug metabolism (Cytochrome P450 2C19 [5]): metabolite_detected
Drug metabolism (Cytochrome P450 2C18): metabolite_not_detected
Drug metabolism (Cytochrome P450 2C9): metabolite_not_detected
Drug metabolism [6]: metabolite_detected
Retention_time [7]: 12.2 min
Drug metabolism [8]: metabolite_detected
Drug metabolism [9]: metabolite_detected
Drug metabolism (Cytochrome P450 1A2): metabolite_not_detected
Drug metabolism (Liver microsome [10]): metabolite_detected
Drug metabolism [11]: metabolite_detected
Compound: Cc1cc(C(C)(C)C)c(O)c(C)c1CC1=NCCN1 [OXYMETAZOLINE]
